# Experimental data reported in ChEMBL document CHEMBL4665909, “Carboxamides as Modulators of Sodium Channels” (ACS Med Chem Lett, 2020).
# pIC50: −log10 of the molar value.
# Biological target: Sodium channel protein type 10 subunit alpha (Homo sapiens, UniProt Q9Y5Y9)
# Assay: Inhibition of human Nav1.8 expressed in HEK cells applied electrical stimulus 10 Hz for 10 seconds measuring relaxation to the resting state followed by post stimulation by E-VIPR Assay
# Assay type: cell-based
# Sodium channel protein type 10 subunit alpha, sequence (Q9Y5Y9 whole entry): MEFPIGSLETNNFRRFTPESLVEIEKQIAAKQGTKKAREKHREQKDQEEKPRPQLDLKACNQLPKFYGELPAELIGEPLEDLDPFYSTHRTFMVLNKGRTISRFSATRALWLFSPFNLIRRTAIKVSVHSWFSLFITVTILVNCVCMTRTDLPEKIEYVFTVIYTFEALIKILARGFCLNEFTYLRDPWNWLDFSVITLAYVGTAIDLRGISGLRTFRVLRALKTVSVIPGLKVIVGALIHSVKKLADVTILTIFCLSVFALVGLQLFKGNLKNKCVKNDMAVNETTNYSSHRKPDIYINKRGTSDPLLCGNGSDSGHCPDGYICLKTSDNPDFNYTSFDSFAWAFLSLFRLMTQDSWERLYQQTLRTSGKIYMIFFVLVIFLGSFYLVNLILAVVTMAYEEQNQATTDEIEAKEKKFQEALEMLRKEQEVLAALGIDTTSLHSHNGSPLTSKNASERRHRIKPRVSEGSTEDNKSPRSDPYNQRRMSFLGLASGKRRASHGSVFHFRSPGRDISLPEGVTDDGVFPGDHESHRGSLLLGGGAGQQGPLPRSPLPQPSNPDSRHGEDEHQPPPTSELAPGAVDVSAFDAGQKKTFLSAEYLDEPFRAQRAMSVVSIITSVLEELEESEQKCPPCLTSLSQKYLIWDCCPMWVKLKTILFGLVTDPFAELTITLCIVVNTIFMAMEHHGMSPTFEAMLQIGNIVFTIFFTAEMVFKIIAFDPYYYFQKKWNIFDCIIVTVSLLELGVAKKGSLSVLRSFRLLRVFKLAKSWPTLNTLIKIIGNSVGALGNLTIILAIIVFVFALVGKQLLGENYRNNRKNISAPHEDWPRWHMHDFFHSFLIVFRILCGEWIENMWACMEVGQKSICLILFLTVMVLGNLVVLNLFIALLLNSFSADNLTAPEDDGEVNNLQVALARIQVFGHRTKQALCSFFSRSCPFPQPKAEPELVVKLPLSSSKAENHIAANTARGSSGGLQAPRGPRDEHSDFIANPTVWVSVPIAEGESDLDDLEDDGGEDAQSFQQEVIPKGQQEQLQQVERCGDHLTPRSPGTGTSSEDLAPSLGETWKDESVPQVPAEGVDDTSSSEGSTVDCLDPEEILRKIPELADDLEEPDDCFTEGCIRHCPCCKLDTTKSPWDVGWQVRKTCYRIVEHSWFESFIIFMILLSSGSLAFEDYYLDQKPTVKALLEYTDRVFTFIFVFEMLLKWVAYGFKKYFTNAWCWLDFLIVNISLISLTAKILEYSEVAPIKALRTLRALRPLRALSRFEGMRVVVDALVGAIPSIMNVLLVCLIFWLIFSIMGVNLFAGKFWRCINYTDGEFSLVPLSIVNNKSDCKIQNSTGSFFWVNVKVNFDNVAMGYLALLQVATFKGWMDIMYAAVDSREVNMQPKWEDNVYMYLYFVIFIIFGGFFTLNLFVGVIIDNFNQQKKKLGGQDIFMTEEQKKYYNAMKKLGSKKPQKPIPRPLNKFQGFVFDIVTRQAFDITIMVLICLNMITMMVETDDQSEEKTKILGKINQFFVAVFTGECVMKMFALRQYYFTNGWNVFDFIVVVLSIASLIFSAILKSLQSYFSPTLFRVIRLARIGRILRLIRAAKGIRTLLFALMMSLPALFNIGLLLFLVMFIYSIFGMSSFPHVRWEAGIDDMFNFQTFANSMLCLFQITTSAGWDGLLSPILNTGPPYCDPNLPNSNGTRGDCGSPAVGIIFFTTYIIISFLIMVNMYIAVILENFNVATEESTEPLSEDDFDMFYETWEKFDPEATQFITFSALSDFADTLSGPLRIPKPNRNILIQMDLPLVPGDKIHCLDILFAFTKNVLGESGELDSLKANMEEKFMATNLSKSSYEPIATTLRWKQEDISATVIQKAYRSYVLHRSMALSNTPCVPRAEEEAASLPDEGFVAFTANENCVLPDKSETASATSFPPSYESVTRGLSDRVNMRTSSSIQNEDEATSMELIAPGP
row,Structure (SMILES),pIC50
1,COc1c(Cl)cc(Oc2ccc(OC(F)(F)F)c(F)c2OC)c(C(=O)Nc2ccnc(C(N)=O)c2)c1F,8.89
2,COc1c(Oc2cc(Cl)c(C)c(F)c2C(=O)Nc2ccnc(C(N)=O)c2)ccc(OC(F)(F)F)c1F,8.85
3,COc1c(Oc2cc(C(F)(F)F)c(C)c(F)c2C(=O)Nc2ccnc(C(N)=O)c2)ccc(OC(F)(F)F)c1F,9.10
4,COc1cc(Oc2ccc(OC(F)(F)F)c(F)c2OC)c(C(=O)Nc2ccnc(C(N)=O)c2)c(F)c1Cl,8.77
5,COc1cc(OC(F)(F)F)ccc1Oc1ccc(C(F)(F)F)c(C)c1C(=O)Nc1ccnc(C(N)=O)c1,8.40
6,COc1cc(OC(F)(F)F)ccc1Oc1ccc(C(F)(F)F)c(Br)c1C(=O)Nc1ccnc(C(N)=O)c1,8.70
7,COc1c(Oc2ccc(Cl)c(F)c2C(=O)Nc2ccnc(C(N)=O)c2)ccc(OC(F)(F)F)c1F,8.64
8,COc1c(Oc2ccc(C(F)(F)F)c(C)c2C(=O)Nc2ccnc(C(N)=O)c2)ccc(OC(F)(F)F)c1F,8.52
9,COc1cc(OC(F)(F)F)ccc1Oc1cc(OC)c(C(F)(F)F)c(F)c1C(=O)Nc1ccnc(C(N)=O)c1,8.74
10,COc1cc(OC(F)(F)F)ccc1Oc1ccc(C(F)(F)F)c(Cl)c1C(=O)Nc1ccnc(C(N)=O)c1,8.70
11,COc1c(Oc2cc(C(F)(F)F)c(OC)c(F)c2C(=O)Nc2ccnc(C(N)=O)c2)ccc(OC(F)(F)F)c1F,8.80
12,COc1cc(Oc2ccc(OC(F)(F)F)c(F)c2OC)c(C(=O)Nc2ccnc(C(N)=O)c2)c(F)c1C(F)(F)F,9.40
